For series [1], the system named is Meloidogyne spp. (Root-knot nematode). As to the kind of experiment: Meloidogyne spp. (Root-knot nematode) contact activity, preventive, pouch test (Biological Screen Nem 1). Format: in vivo. Particulars: cucumber cv. Toshka, test solutions at 200 ppm, 3000 eggs, assessed after twelve days, cis vs trans isomers. As for the experimental part: Meloidogyne spp. (Root-knot nematode) contact activity, preventive. Pouch test. Filter papers (9 cm×4.5 cm) with a small pocket were placed into plastic pouches (12 cm×6 cm). One cucumber cv. Toshka seed was placed in the centre of the filter paper pocket of all the pouches needed for a test. The cucumber seeds in the pouches were treated with test solutions at 200 ppm by pipetting the solution directly over the cucumber seed in the filter paper pocket in the pouch. Prior to application, the compound solution was prepared at twice the concentration required and the egg suspension is prepared with FORL nutrient solution with 3000 eggs/0.5 ml. After applying all the treatments, 3000 eggs (in 0.5 ml of FORL nutrient solution) were pipetted into the pouches. The pouches were incubated in a moist chamber for twelve days and watered regularly to maintain good filter paper moisture essential for the growing cucumber root system. After this period, the filter paper containing the germinated cucumber seedling was removed from the plastic pouch to assess the number of galls caused by Meloidogyne spp. per root system. Biological Screen Nem 1. Meloidogyne spp. (Root-knot nematode) contact activity, preventive. Pouch test. Values are given in % galling.

A further series concerns M. incognita. As to the kind of experiment: Meloidogyne spp. (Root-knot nematode) contact activity, preventive, drench test (Biological Screen Nem 2). Particulars: cucumber cv. Toshka in pots, WP10 suspension at 20 ppm, 3000 eggs of M. incognita, harvested after fourteen days, Zeck's gall index, cis vs trans isomers. Format: in vivo. As for the experimental part:
Meloidogyne spp. (Root-knot nematode) contact activity, preventive, drench test. Cucumber cv. Toshka seeds were shown directly into pots filled with a sandy substrate. Six days later pots were each treated with 5 ml of a WP10 suspension of the test compound at 20 ppm. Hereafter pots were inoculated with 3000 eggs of M. incognita. The trial was harvested fourteen days after trial application and inoculation. Root galling was assessed according to Zeck's gall index (Zeck, 1971). Biological Screen Nem 2. Meloidogyne spp. (Root-knot nematode) contact activity, preventive, drench test. Values are given in % galling.

Molecules are shown by their SMILES. Several values for one entry are separate records, joined by “and”; a condition that tells them apart may be missing. Identical values can stand only once.

Consider `O=C(N[C@@H]1C[C@@H]1c1ccc(OC(F)F)cc1)c1ccccc1C(F)(F)F` (relative stereo) [Compound 67-011, N-[cis-2-(4-difluoromethoxy-phenyl)-cyclopropyl]-2-trifluoromethyl-benzamide], for which the melting point fell in the range of 133 to 136 °C.

Take `C[C@H]1C(c2ccc(Cl)cc2)[C@@H]1NC(=O)c1ccccc1C(F)(F)F` (mixture of isomers) [Compound 68.008, N-[(1R,2R,3S)-2-(4-chlorophenyl)-3-methyl-cyclopropyl]-2-(trifluoromethyl)benzamide]: the melting point lay within 167 to 169 °C.

Consider `O=C(N[C@@H]1C[C@@H]1c1ccc(C(F)(F)F)cc1)c1ccccc1C(F)(F)F` (racemic) [Compound 67-026], for which the “Nem 1 (% galling)” value in series [1] is recorded as 64%. The “Nem 2 (% galling)” value with M. incognita is on record as 82%.

As for `O=C(N[C@@H]1CC1c1ccc(Cl)cc1Cl)c1c(F)cccc1F` (stereo partly shown) [Compound 67-016], the melting point lay within 179 to 182 °C. The “Nem 1 (% galling)” value in series [1] was found to be 81%. In addition, the “Nem 2 (% galling)” value with M. incognita was 96%.

Regarding `C[C@]1(c2ccc(Cl)cc2)CC1NC(=O)c1c(F)cccc1F` (mixture of isomers) [Compound 68.009, N-[(1R,2R)-2-(4-chlorophenyl)-2-methyl-cyclopropyl]-2,6-difluoro-benzamide], the melting point fell in the range of 140 to 142 °C.

With `O=C(N[C@@H]1C[C@@H]1c1ccc(F)cc1)c1ccccc1C(F)(F)F` (relative stereo) [Compound 67-003, N-[cis-2-(4-Fluoro-Phenyl)-Cyclopropyl]-2-Trifluoromethyl-benzamide], the melting point was 140 to 142 °C and 139 to 140 °C.

In the case of `Cn1cc(C(=O)N[C@@H]2C[C@@H]2c2ccc(F)cc2)c(C(F)F)n1` (relative stereo) [Compound 67.002, 3-difluoromethyl-1-methyl-1H-pyrazole-4-carboxylic acid [(cis)-2-(4-fluoro-phenyl)-cyclopropyl]-amide], the melting point lay within 141 to 143 °C.

With `C[C@H]1C(NC(=O)c2c(F)cccc2F)[C@H]1c1ccc(F)cc1` (mixture of isomers) [Compound 68.003, 2,6-difluoro-N-[(1R,2R,3R)-2-(4-fluorophenyl)-3-methyl-cyclopropyl]benzamide], the melting point was 90 to 96 °C.

Take `O=C(N[C@@H]1C[C@@H]1c1ccc(Cl)cc1Cl)c1ccccc1C(F)(F)F` (racemic) [Compound 67-014]: the “Nem 1 (% galling)” value in series [1] was 100%. The “Nem 2 (% galling)” value with M. incognita is 98%.

One may read the melting point as the temperature, or range, at which the solid turns liquid.

The record behind these values is patent publication US9408392B2, “Compounds” (SYNGENTA PARTICIPATIONS AG, priority 2012, dated 2016).
